Where a name gives a salt, the structure may show the parent alone.
Key:
[1] = test system: YAP/TAZ; assay: YAP/TAZ nuclear localization in IPF patient-derived lung fibroblasts treated with dopaminergic agonists; assay type: cell-based, human; details: 10 μM, 2 hours
Description: IPF patient-derived lung fibroblasts cells treated 2 hours prior to fixation with diverse dopaminergic agonists (10 μM). N=4 different patient samples. % nuclear localization of YAP/TAZ was determined using automated imaging software. Scale bar represents 100 μm.
(§1) Media was then exchanged for the indicated conditions for each experiment. […] Cells or tissue sections were incubated overnight with mouse monoclonal antibody against αSMA (Sigma-Aldrich F3777), and/or a rabbit monoclonal antibody against YAP/TAZ (Cell Signaling D24E4) diluted 1:200 in PBS with 1% BSA. Cells were then washed and exposed to flourescence-conjugated secondary antibodies (Invitrogen) diluted 1:1000 and DAPI (Thermo Fisher Scientific). Images were taken with a Cytation5 (BioTek) microscope. For scoring αSMA positive cells (FIG. 12), an observer blinded to the treatment conditions counted αSMA-positive cells using a visual threshold for bright fibrous staining; a minimum of 200 cells was counted for each condition. YAP/TAZ localization was quantified (FIGS. 6-10, 24-26, and 29-30) using Gen5 (Biotek) software. Images were taken at 4× magnification of both DAPI and YAP/TAZ staining. […] Quantification of double positive (YAP/TAZ and αSMA) cells from lung tissue sections (FIG. 17-21) was performed similarly; however separate thresholds were established for both YAP/TAZ and αSMA. A minimum of 4000 cells was quantified for each mouse.

[2] = test system: αSMA; assay: αSMA intensity (fibroblast activation) in IPF patient-derived lung fibroblasts + TGFβ, dopaminergic agonist library; assay type: cell-based, human; details: 1 μM + TGFβ; for αSMA intensity (% of DMSO control): 72 hours
Description: as §1

Row | Compound | Nuclear localization (% of total cells) ([1]; IPF-1 patient fibroblasts) | Nuclear localization (% of total cells) ([1]; IPF-2 patient fibroblasts) | Nuclear localization (% of total cells) ([1]; IPF-3 patient fibroblasts) | Nuclear localization (% of total cells) ([1]; IPF-4 patient fibroblasts) | αSMA intensity (% of DMSO control) ([2]; IPF-1 patient fibroblasts) | αSMA intensity (% of DMSO control) ([2]; IPF-2 patient fibroblasts) | αSMA intensity (% of DMSO control) ([2]; IPF-3 patient fibroblasts) | αSMA intensity (% of DMSO control) ([2]; IPF-4 patient fibroblasts) | activity at 1 µM ([2]; Homo sapiens, SMA, 72 h, IPF-3 patient fibroblasts, read-out: αSMA intensity (% of DMSO control)) [%]
1 | Cc1cccc(C(=O)NCN2CCN(c3ccccc3C#N)CC2)c1.O=C(O)/C=C\C(=O)O [PD 168077 maleate, PD 168077] | 67.08 % of total cells | 42.44 % of total cells | 63.68 % of total cells | 68.4 % of total cells | 75.27 % of DMSO control | 56.15 % of DMSO control | 75.77 % of DMSO control | 66.5 % of DMSO control | –
2 | R(−)-2,10,11-Trihydroxyaporphine [R(−)-2,10,11-Trihydroxyaporphine•HBr] | 13.71 % of total cells | 22.15 % of total cells | 24.15 % of total cells | 17.75 % of total cells | 2.888 % of DMSO control | 1.698 % of DMSO control | 7.646 % of DMSO control | 15.9942 % of DMSO control | –
3 | CCCN(CCC)CCc1cccc2c1CC(=O)N2 [Ropinirole HCl, Ropinirole] | 69.6036 % of total cells | 58.68 % of total cells | 64.66 % of total cells | 65.7 % of total cells | – | – | – | – | 79
4 | CCCN1CCC[C@@H]2Cc3nc(N)ncc3C[C@H]21.Cl.Cl [LY-163,502•2HCl, LY-163,502] | 73.37 % of total cells | 60.97 % of total cells | 59.43 % of total cells | 66.49 % of total cells | 88.99 % of DMSO control | 72.86 % of DMSO control | 75.3 % of DMSO control | 86.7894 % of DMSO control | –
5 | Br.NC1CCc2cc(O)c(O)cc2C1 (stereo not drawn) [6,7-ADTN•HBr, 6,7-ADTN] | 43.89 % of total cells | 44 % of total cells | 65.5 % of total cells | 52.65 % of total cells | 37.14 % of DMSO control | 4.182 % of DMSO control | 9.909 % of DMSO control | 4.888 % of DMSO control | –
6 | C=CCN1CCc2nc(N)sc2CC1.Cl.Cl [B-HT 920•2HCl, B-HT 920] | 75.68 % of total cells | 46.9 % of total cells | 64.79 % of total cells | 76.24 % of total cells | 74.98 % of DMSO control | 58.97 % of DMSO control | 70.12 % of DMSO control | 54.23 % of DMSO control | –
7 | R(−)-Propylnorapomorphine [R(−)-Propylnorapomorphine•HCl] | 28.35 % of total cells | 26.71 % of total cells | 42.74 % of total cells | 29.03 % of total cells | 5.081 % of DMSO control | 1.879 % of DMSO control | 5.561 % of DMSO control | 19.96 % of DMSO control | –
8 | NC[C@@H]1O[C@H](C23CC4CC(CC(C4)C2)C3)Cc2c1ccc(O)c2O [A-77636•HCl•H2O, A-77636] | 26.46 % of total cells | 30.88 % of total cells | 41.33 % of total cells | 37.79 % of total cells | 5.808 % of DMSO control | 0.7188 % of DMSO control | 0.06766 % of DMSO control | 12.43 % of DMSO control | –
9 | Br.C=CCN1CCc2c(cc(O)c(O)c2Br)[C@@H](c2ccccc2)C1 [R(+)-6-BROMO-APB•HBr, R(+)-6-BROMO-APB] | 28.37 % of total cells | 38 % of total cells | 36 % of total cells | 25.65 % of total cells | 11.25 % of DMSO control | 2.507 % of DMSO control | 0.8506 % of DMSO control | 22.82 % of DMSO control | –
10 | CCCN(CCC)CCc1ccc(O)c(O)c1 [Dipropyldopamine•HBr, Dipropyldopamine] | 69.18 % of total cells | 74.36 % of total cells | 65.5 % of total cells | 51.82 % of total cells | 48.72 % of DMSO control | 28.11 % of DMSO control | 40.34 % of DMSO control | 25.86 % of DMSO control | –
11 | COc1ccc2c(c1O)-c1cc(O)cc3c1[C@@H](C2)N(C)CC3.Cl [R(−)-2,11-dihydroxy-10-methoxyapomorphine] | 85.18 % of total cells | 74.67 % of total cells | 80.73 % of total cells | 80.45 % of total cells | 91.84 % of DMSO control | 92.8 % of DMSO control | 81.85 % of DMSO control | 85.61 % of DMSO control | –
12 | Br.CCCN1CCc2cc(O)cc3c2[C@H]1Cc1ccc(O)c(O)c1-3 [R(−)-2,10,11-Trihydroxy-N-propyl-noraporphine] | 32.87 % of total cells | 35.25 % of total cells | 37.7 % of total cells | 25.36 % of total cells | 4.895 % of DMSO control | 8.436 % of DMSO control | 2.988 % of DMSO control | 25.61 % of DMSO control | –
13 | Br.C=CCN1CCc2c(cc(O)c(O)c2Cl)C(c2ccccc2)C1 (racemic) [(±)-SKF-82958•HBr, (±)-SKF-82958] | 29.15 % of total cells | 38 % of total cells | 38 % of total cells | 12.29 % of total cells | 11.78 % of DMSO control | 4.966 % of DMSO control | 2.428 % of DMSO control | 9.326 % of DMSO control | –
14 | CN1Cc2ccccc2[C@@H]2c3cccc4[nH]cc(c34)C[C@H]21 [CY 208-243] | 20.52 % of total cells | 39.79 % of total cells | 41.17 % of total cells | 19.82 % of total cells | 21.01 % of DMSO control | 2.28 % of DMSO control | 2.611 % of DMSO control | 9.643 % of DMSO control | –
15 | CCCN(CCc1ccccc1)C1CCc2c(O)cccc2C1.Cl (racemic) [(±)-2-(N-phenylethyl-N-propyl)amino-5-hydroxytetralin] | 68.85 % of total cells | 60.86 % of total cells | 68 % of total cells | 56.552 % of total cells | 65.43 % of DMSO control | 52.77 % of DMSO control | 60.4844 % of DMSO control | 51.1 % of DMSO control | –

— patent publication US12264163B2, “Compounds and methods for treating fibrotic pathologies” (Mayo Foundation for Medical Education and Research, priority 2019, dated 2025)
